System: yeast genes (level of expressed mRNA)
Experiment: DNA chip analysis of expressed mRNA of yeast genes after 2 h culture with a toxic chemical substance
Assay type: cell-based, Saccharomyces cerevisiae S288C
Summary of the method: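 Values are treated-to-control fluorescence ratios from a whole-yeast-genome DNA chip (65° C, over 12 h hybridization) using Cy3/Cy5-labelled cDNA from mRNA. Log-phase S288C cells in YPD at 25° C were exposed 2 h to a toxicant at sublethal, growth-inhibiting concentration.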

Q: What does the source list for γ-hexachlorocyclohexane [(7)]?
A: The level of expressed mRNA in the presence of chemical substance/ (yeast gene YAL053W, ratio to control without chemical): 0.7; The level of expressed mRNA in the presence of chemical substance/The level of expressed mRNA in the absence of chemical substance (yeast gene YAR010C): 1.9; The level of expressed mRNA in the presence of chemical substance/The level of expressed mRNA in the absence of chemical substance (yeast gene YBL005W-A): 1.4; The level of expressed mRNA in the presence of chemical substance/The level of expressed mRNA in the absence of chemical substance (yeast gene YBL041W): 1.6; The level of expressed mRNA in the presence of chemical substance/The level of expressed mRNA in the absence of chemical substance (yeast gene YBL043W): 1.5; The level of expressed mRNA in the presence of chemical substance/ (yeast gene YBL048W, ratio to control without chemical substance, 2 h culture): 1.9; The level of expressed mRNA in the presence of chemical substance/The level of expressed mRNA in the absence of chemical substance (yeast gene YBL078C): 3.1; The level of expressed mRNA in the presence of chemical substance/ (yeast gene YBL107C, ratio to control without chemical substance, 2 h culture): 2.1; The level of expressed mRNA in the presence of chemical substance/in the absence of chemical substance (yeast gene YBR036C): 1.3; The level of expressed mRNA in the presence of chemical substance/The level of expressed mRNA in the absence of chemical substance (yeast gene YBR214W): 1.1; The level of expressed mRNA in the presence of chemical substance/in the absence of chemical substance (yeast gene YBR298C): 1.7; The level of expressed mRNA in the presence of chemical substance/The level of expressed mRNA in the absence of chemical substance (yeast gene YCL020W): 1.5; The level of expressed mRNA in the presence of chemical substance/The level of expressed mRNA in the absence of chemical substance (yeast gene YCL027W): 1.0; The level of expressed mRNA in the presence of chemical substance/The level of expressed mRNA in the absence of chemical substance (yeast gene YCR004C): 1.4; The level of expressed mRNA in the presence of chemical substance/The level of expressed mRNA in the absence of chemical substance (yeast gene YCR071C): 1.4; The level of expressed mRNA in the presence of chemical substance/The level of expressed mRNA in the absence of chemical substance (yeast gene YCR088W): 1.2; The level of expressed mRNA in the presence of chemical substance/The level of expressed mRNA in the absence of chemical substance (yeast gene YDL008W): 2.0; The level of expressed mRNA in the presence of chemical substance/ (yeast gene YDL072C, ratio to control without chemical): 1.8; The level of expressed mRNA in the presence of chemical substance/in the absence of chemical substance (yeast gene YDL078C): 1.7; The level of expressed mRNA in the presence of chemical substance/ (yeast gene YDL204W, ratio to control without chemical): 3.2; The level of expressed mRNA in the presence of chemical substance/in the absence of chemical substance (yeast gene YDL215C): 1.9; The level of expressed mRNA in the presence of chemical substance/ (yeast gene YDL222C, ratio to control without chemical): 1.0; The level of expressed mRNA in the presence of chemical substance/The level of expressed mRNA in the absence of chemical substance (yeast gene YDL238C): 1.4; The level of expressed mRNA in the presence of chemical substance/The level of expressed mRNA in the absence of chemical substance (yeast gene YDR055W): 1.5; The level of expressed mRNA in the presence of chemical substance/The level of expressed mRNA in the absence of chemical substance (yeast gene YDR084C): 0.9; The level of expressed mRNA in the presence of chemical substance/The level of expressed mRNA in the absence of chemical substance (yeast gene YDR085C): 4.1; The level of expressed mRNA in the presence of chemical substance/The level of expressed mRNA in the absence of chemical substance (yeast gene YDR104C): 1.0; The level of expressed mRNA in the presence of chemical substance/The level of expressed mRNA in the absence of chemical substance (yeast gene YDR115W): 1.6; The level of expressed mRNA in the presence of chemical substance/The level of expressed mRNA in the absence of chemical substance (yeast gene YDR259C): 2.8; The level of expressed mRNA in the presence of chemical substance/in the absence of chemical substance (yeast gene YDR297W): 0.6; The level of expressed mRNA in the presence of chemical substance/The level of expressed mRNA in the absence of chemical substance (yeast gene YDR315C): 1.4; The level of expressed mRNA in the presence of chemical substance/ (yeast gene YDR330W, ratio to control without chemical substance, 2 h culture): 1.3; The level of expressed mRNA in the presence of chemical substance/The level of expressed mRNA in the absence of chemical substance (yeast gene YDR358W): 2.8; The level of expressed mRNA in the presence of chemical substance/in the absence of chemical substance (yeast gene YDR387C): 1.3; The level of expressed mRNA in the presence of chemical substance/The level of expressed mRNA in the absence of chemical substance (yeast gene YDR388W): 1.1; The level of expressed mRNA in the presence of chemical substance/ (yeast gene YDR411C, ratio to control without chemical substance, 2 h culture): 2.0; The level of expressed mRNA in the presence of chemical substance/The level of expressed mRNA in the absence of chemical substance (yeast gene YDR432W): 0.5; The level of expressed mRNA in the presence of chemical substance/The level of expressed mRNA in the absence of chemical substance (yeast gene YDR481C): 0.7; The level of expressed mRNA in the presence of chemical substance/The level of expressed mRNA in the absence of chemical substance (yeast gene YDR510W): 1.6; The level of expressed mRNA in the presence of chemical substance/ (yeast gene YDR511W, ratio to control without chemical substance, 2 h culture): 1.5; The level of expressed mRNA in the presence of chemical substance/ (yeast gene YDR545W, ratio to control without chemical substance, 2 h culture): 1.2; The level of expressed mRNA in the presence of chemical substance/ (yeast gene YEL001C, ratio to control without chemical): 1.1; The level of expressed mRNA in the presence of chemical substance/The level of expressed mRNA in the absence of chemical substance (yeast gene YEL042W): 0.5; The level of expressed mRNA in the presence of chemical substance/The level of expressed mRNA in the absence of chemical substance (yeast gene YEL066W): 1.8; The level of expressed mRNA in the presence of chemical substance/ (yeast gene YER004W, ratio to control without chemical substance, 2 h culture): 1.4; The level of expressed mRNA in the presence of chemical substance/ (yeast gene YER035W, ratio to control without chemical substance, 2 h culture): 1.9; The level of expressed mRNA in the presence of chemical substance/The level of expressed mRNA in the absence of chemical substance (yeast gene YER039C): 1.3; The level of expressed mRNA in the presence of chemical substance/ (yeast gene YER079W, ratio to control without chemical substance, 2 h culture): 1.9; The level of expressed mRNA in the presence of chemical substance/ (yeast gene YER106W, ratio to control without chemical): 1.0; The level of expressed mRNA in the presence of chemical substance/The level of expressed mRNA in the absence of chemical substance (yeast gene YER107C): 1.0; The level of expressed mRNA in the presence of chemical substance/The level of expressed mRNA in the absence of chemical substance (yeast gene YER130C): 1.5; The level of expressed mRNA in the presence of chemical substance/ (yeast gene YER158C, ratio to control without chemical substance, 2 h culture): 1.2; The level of expressed mRNA in the presence of chemical substance/ (yeast gene YER163C, ratio to control without chemical substance, 2 h culture): 1.5; The level of expressed mRNA in the presence of chemical substance/ (yeast gene YER175C, ratio to control without chemical substance, 2 h culture): 2.3; The level of expressed mRNA in the presence of chemical substance/ (yeast gene YFL006W, ratio to control without chemical substance, 2 h culture): 1.0

Source: patent US20050112573A1, “Method of detecting toxic substance” (priority 2001, published 2005)
